In patent US20230219965A1 (KSQ Therapeutics, Inc., priority 2020, published 2023):
Where two headings read alike, the source gives them in different places.

How the values were obtained:
[1] = molecular target: USP1/UAF1 enzyme (Homo sapiens, UniProt O94782); experiment: USP1/UAF1 deubiquitination assay (ubiquitin-rhodamine 110 substrate); format: biochemical; conditions: read-out: USP1 IC50 (Ub-Rho)
Method in brief: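 0.05 nM USP1/UAF1 was preincubated 10 min with compounds (dose response from 10 μM) in 50 mM Tris-HCl pH 7.8, 0.5 mM EDTA, 0.01% BSA, 1 mM DTT, 0.01% Tween-20. 150 nM ubiquitin-rhodamine 110 started the reaction, read kinetically 30 min at Ex480/Em540; IC50 by four-parameter fit versus no-enzyme and DMSO controls.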

[2] = Liver microsomal metabolic stability, human liver microsomes (HLM); conditions: human, liver microsomes
[3] = Liver microsomal metabolic stability, rat liver microsomes (RLM); conditions: rat, liver microsomes, t1/2 (min) in RLM, 1 μM compound, 1 mg/mL microsomes, NADPH
Experimental: Samples were prepared by adding 222.5 μL of a master solution (100 mM phosphate buffer and 1 mg/mL liver microsomes (HLM or RLM)) and 25 μL of a 10 mM NADPH solution to incubation plates, which were then warmed for 10 min. Each compound was separately dissolved in DMSO to prepare 10 mM stock solutions, which were then diluted to 100 μM with acetonitrile. A reaction was started by adding 2.5 μL of the 100 μM solution of each compound to separate incubation plates such that the final concentration of for each compound in each plate was 1 μM.
25 μL aliquots of each sample were taken at 0.5, 5, 10, 15, 20 and 30 minutes, and the reaction was stopped by adding 5 volumes of cold acetonitrile with IS (100 nM alprazolam, 200 nM caffeine and 100 nM tolbutamide). The samples were then centrifuged at 3,220 G for 30 minutes, and 100 μL of the supernatant fluid was mixed with 100 μL of ultra-pure H2O.
The samples were then analyzed by LC-MS/MS. Peak areas were determined from extracted ion chromatograms. Slope values (k) were determined by linear regression of the natural logarithm of the remaining percentage of the compound vs. incubation time curve. The in vitro half-life (in vitro t1/2) was determined from the slope value using the following equation:

[4] = ADME solubility determination in PBS at pH 2.0 and pH 7.4; format: physicochemical; conditions: phosphate buffered saline, 25 °C, thermodynamic from solid
Method in brief: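 Dried 10 mM DMSO stock residues taken up in PBS pH 7.4 or pH 2.0, shaken 24 h at 25° C. After centrifugation, supernatant quantified by LC-MS/MS against a standard of known concentration, with a dilution factor applied.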

[5] = system: Ub-PCNA levels in the nucleus of ES2 cells (USP1 activity); experiment: ES2 Ub-PCNA immunofluorescence (IF) assay; format: cell-based; conditions: Homo sapiens, ES-2; ES2 cells, 3 hours, Ub-PCNA immunofluorescence; read-out: USP1 IC50 (Ub-PCNA)
Method in brief: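 Cells plated overnight, then compound-treated for 3 h at 37° C (0.3% DMSO final), methanol-fixed and stained with anti-Ub-PCNA plus DAPI. Per-nucleus Ub-PCNA intensity imaged; cells above the 95% cutoff of untreated wells counted as positive, and percent positive cells used to derive AC50.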

[6] = pH 2, aqueous buffer, PBS pH 2.0, 25° C., read-out: Solubility at pH 2.0
[7] = pH 7.4, aqueous buffer, PBS pH 7.4, 25° C., read-out: Solubility at pH 7.4

Sequence of USP1/UAF1 enzyme (O94782 whole entry): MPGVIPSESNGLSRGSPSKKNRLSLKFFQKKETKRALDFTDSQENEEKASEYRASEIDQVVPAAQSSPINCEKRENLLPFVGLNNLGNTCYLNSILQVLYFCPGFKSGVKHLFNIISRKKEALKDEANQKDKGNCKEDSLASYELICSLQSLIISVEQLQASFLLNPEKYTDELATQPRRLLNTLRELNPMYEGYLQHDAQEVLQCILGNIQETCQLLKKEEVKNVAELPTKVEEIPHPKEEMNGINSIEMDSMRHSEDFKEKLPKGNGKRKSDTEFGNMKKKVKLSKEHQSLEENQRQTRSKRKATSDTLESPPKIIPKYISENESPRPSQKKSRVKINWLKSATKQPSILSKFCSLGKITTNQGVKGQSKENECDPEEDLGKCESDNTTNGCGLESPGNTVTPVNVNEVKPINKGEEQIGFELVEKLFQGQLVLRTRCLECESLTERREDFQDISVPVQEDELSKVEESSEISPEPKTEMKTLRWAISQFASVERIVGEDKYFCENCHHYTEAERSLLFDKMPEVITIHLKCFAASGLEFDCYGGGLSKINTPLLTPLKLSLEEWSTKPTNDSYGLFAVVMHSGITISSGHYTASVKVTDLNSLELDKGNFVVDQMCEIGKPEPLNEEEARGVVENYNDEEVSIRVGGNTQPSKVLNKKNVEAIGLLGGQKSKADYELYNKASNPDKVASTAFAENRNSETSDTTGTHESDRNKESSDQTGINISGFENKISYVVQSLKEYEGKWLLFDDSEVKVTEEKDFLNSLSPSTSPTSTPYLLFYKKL
Sequence of USP1/UAF1 enzyme (Q8TAF3 whole entry partner): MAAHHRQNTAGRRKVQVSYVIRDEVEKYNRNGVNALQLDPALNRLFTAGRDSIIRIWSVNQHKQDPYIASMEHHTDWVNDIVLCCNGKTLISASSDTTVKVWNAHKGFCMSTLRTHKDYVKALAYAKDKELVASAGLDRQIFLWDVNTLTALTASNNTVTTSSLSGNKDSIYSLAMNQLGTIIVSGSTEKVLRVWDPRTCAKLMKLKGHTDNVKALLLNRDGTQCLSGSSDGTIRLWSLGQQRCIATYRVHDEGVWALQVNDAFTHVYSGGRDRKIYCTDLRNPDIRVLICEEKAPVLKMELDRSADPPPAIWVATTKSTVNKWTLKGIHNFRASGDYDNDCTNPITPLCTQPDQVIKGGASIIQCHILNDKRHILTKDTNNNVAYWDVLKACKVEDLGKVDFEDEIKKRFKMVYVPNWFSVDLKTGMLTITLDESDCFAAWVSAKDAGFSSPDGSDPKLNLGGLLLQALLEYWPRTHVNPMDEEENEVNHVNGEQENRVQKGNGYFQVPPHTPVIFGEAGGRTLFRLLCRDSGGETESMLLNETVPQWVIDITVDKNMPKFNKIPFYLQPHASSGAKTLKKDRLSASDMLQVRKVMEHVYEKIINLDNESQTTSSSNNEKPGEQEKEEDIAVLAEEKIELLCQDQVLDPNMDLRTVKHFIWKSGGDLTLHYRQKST

SMILES: COc1cccc(C)c1-c1cc2n(n1)CCCN2Cc1ccc(-c2nc(C(F)(F)F)cn2C)cc1 [Example 74, 2-(2-methoxy-6-methylphenyl)-4-(4-(1-methyl-4-(trifluoromethyl)-1H-imidazol-2-yl)benzyl)-4,5,6,7-tetrahydropyrazolo[1,5-α]pyrimidine]
- IC50 [1]: < 100 nM
- half-life at 1 μM [2]: < 25 min
- half-life at 1 μM [3]: < 25 min
- solubility at 24 h [4, 6]: ≥ 10 µM
- solubility at 24 h [4, 7]: < 10 µM
- IC50 [5]: > 500 nM

SMILES: COc1cc(CN2C(=O)CCn3nc(-c4c(OC)ncnc4C4CC4)cc32)cc(F)c1-c1nc(C(F)(F)F)cn1C(C)C [Example 144]
- IC50 [1]: < 100 nM
- half-life at 1 μM [2]: > 25 min
- half-life at 1 μM [3]: > 25 min
- solubility at 24 h [4, 6]: ≥ 10 µM
- solubility at 24 h [4, 7]: < 10 µM
- IC50 [5]: < 100 nM

SMILES: CCn1cc(C(F)(F)F)nc1-c1ccc(C(C)n2c(=O)ccn3nc(-c4c(OC)ncnc4C4CC4)nc23)cc1 (stereo not drawn) [Example 340, 2-(4-cyclopropyl-6-methoxypyrimidin-5-yl)-4-(1-(4-(1-ethyl-4-(trifluoromethyl)-1H-imidazol-2-yl)phenyl)ethyl)-[1,2,4]triazolo[1,5-a]pyrimidin-5(4H)-one]
- IC50 [1]: < 100 nM
- half-life at 1 μM [2]: > 25 min
- half-life at 1 μM [3]: > 25 min
- solubility at 24 h [4, 6]: ≥ 10 µM
- solubility at 24 h [4, 7]: ≥ 10 µM
- IC50 [5]: < 100 nM

SMILES: CCn1cc(C(F)(F)F)nc1-c1ccc(C(C)N2C(=O)CCn3nc(-c4c(Cl)cnn4C(C)C)cc32)cc1F (stereo not drawn) [Example 119]
- IC50 [1]: < 100 nM
- half-life at 1 μM [2]: > 25 min
- half-life at 1 μM [3]: < 25 min
- solubility at 24 h [4, 6]: < 10 µM
- solubility at 24 h [4, 7]: < 10 µM
- IC50 [5]: < 100 nM

SMILES: CCn1cc(C(F)(F)F)nc1-c1ccc([C@H](C)N2C(=O)CCn3nc(-c4c(C#N)cnn4C(C)C)cc32)cc1F (single isomer, unassigned) [Example 325]
- IC50 [1]: 100 to 500 nM
- half-life at 1 μM [2]: > 25 min
- half-life at 1 μM [3]: > 25 min
- solubility at 24 h [4, 6]: < 10 µM
- solubility at 24 h [4, 7]: < 10 µM
- IC50 [5]: 100 to 500 nM

SMILES: CCn1cc(C(F)(F)F)nc1-c1ccc(CN2C(=O)CCn3nc(-c4c(Cl)cnn4C(C)C)nc32)cc1F [Example 42]
- IC50 [1]: < 100 nM
- half-life at 1 μM [2]: > 25 min
- half-life at 1 μM [3]: > 25 min
- solubility at 24 h [4, 6]: < 10 µM
- solubility at 24 h [4, 7]: < 10 µM
- IC50 [5]: < 100 nM

SMILES: COc1ncnc(C2CC2)c1-c1nc2n(n1)CCC(=O)N2[C@H](C)c1ccc(-n2nc(C(F)(F)F)cc2C)c(F)c1 [Example 204]
- IC50 [1]: < 100 nM
- half-life at 1 μM [2]: > 25 min
- half-life at 1 μM [3]: > 25 min
- solubility at 24 h [4, 6]: ≥ 10 µM
- solubility at 24 h [4, 7]: ≥ 10 µM
- IC50 [5]: < 100 nM

SMILES: CC(C)n1ncc(Cl)c1-c1cc2n(n1)CCC(=O)N2Cc1ccc(-c2nc(C(F)(F)F)cn2C)cc1 [Example 98]
- IC50 [1]: < 100 nM
- half-life at 1 μM [2]: > 25 min
- half-life at 1 μM [3]: > 25 min
- solubility at 24 h [4, 6]: < 10 µM
- solubility at 24 h [4, 7]: < 10 µM
- IC50 [5]: < 100 nM

SMILES: COc1ncnc(C2CC2)c1-c1nc2n(n1)CCC(=O)N2[C@H](C)c1ccc(-c2nc(C(F)(F)F)cn2C2CC2)cc1 [Example 201]
- IC50 [1]: < 100 nM
- half-life at 1 μM [2]: > 25 min
- half-life at 1 μM [3]: > 25 min
- solubility at 24 h [4, 6]: ≥ 10 µM
- solubility at 24 h [4, 7]: ≥ 10 µM
- IC50 [5]: < 100 nM

SMILES: CCn1cc(C(F)(F)F)nc1-c1ccc(COC2CCCn3nc(-c4c(Cl)cnn4C(C)C)cc32)cc1 (stereo not drawn) [Example 270, 2-(4-chloro-1-isopropyl-1H-pyrazol-5-yl)-4-((4-(1-ethyl-4-(trifluoromethyl)-1H-imidazol-2-yl)benzyl)oxy)-4,5,6,7-tetrahydropyrazolo[1,5-α]pyridine]
- IC50 [1]: < 100 nM
- half-life at 1 μM [2]: < 25 min
- half-life at 1 μM [3]: < 25 min
- solubility at 24 h [4, 6]: < 10 µM
- solubility at 24 h [4, 7]: < 10 µM
- IC50 [5]: < 100 nM

SMILES: Cc1cnn(C(C)C)c1-c1nc2n(n1)CCC(=O)N2Cc1ccc(-c2nc(C(F)(F)F)cn2C)cc1 [Example 37, 2-(1-isopropyl-4-methyl-1H-pyrazol-5-yl)-4-(4-(1-methyl-4-(trifluoromethyl)-1H-imidazol-2-yl)benzyl)-6,7-dihydro-[1,2,4]triazolo[1,5-α]pyrimidin-5(4H)-one]
- IC50 [1]: < 100 nM
- half-life at 1 μM [2]: < 25 min
- half-life at 1 μM [3]: < 25 min
- solubility at 24 h [4, 6]: < 10 µM
- solubility at 24 h [4, 7]: < 10 µM
- IC50 [5]: < 100 nM

SMILES: CC(C)n1cc(C(F)(F)F)nc1-c1ccc(CN2CCCn3nc(-c4c(Cl)cnn4C(C)C)cc32)cc1F [Example 59]
- IC50 [1]: < 100 nM
- half-life at 1 μM [2]: < 25 min
- half-life at 1 μM [3]: < 25 min
- solubility at 24 h [4, 6]: < 10 µM
- solubility at 24 h [4, 7]: < 10 µM
- IC50 [5]: < 100 nM

SMILES: Cc1cnn(C(C)C)c1-c1nn2c(c1Cl)N(Cc1ccc(-c3nc(C(F)(F)F)cn3C(C)C)c(F)c1)CCC2 [Example 148]
- IC50 [1]: < 100 nM
- half-life at 1 μM [2]: < 25 min
- half-life at 1 μM [3]: < 25 min
- solubility at 24 h [4, 6]: < 10 µM
- solubility at 24 h [4, 7]: < 10 µM
- IC50 [5]: < 100 nM

SMILES: COc1ncnc(C2CC2)c1-c1nc2n(n1)CCC(=O)N2[C@@H](C)c1ccc(-c2nc(C(F)(F)F)cn2C(C)C)c(F)c1 [Example 173]
- IC50 [1]: < 100 nM
- half-life at 1 μM [2]: > 25 min
- half-life at 1 μM [3]: > 25 min
- solubility at 24 h [4, 6]: ≥ 10 µM
- solubility at 24 h [4, 7]: ≥ 10 µM
- IC50 [5]: < 100 nM

SMILES: COc1cc(C(F)(F)F)nn1-c1ccc(CN2C(=O)CCn3nc(-c4c(C)cnn4C(C)C)cc32)cc1F [Example 12, 4-(3-fluoro-4-(5-methoxy-3-(trifluoromethyl)-1H-pyrazol-1-yl)benzyl)-2-(1-isopropyl-4-methyl-1H-pyrazol-5-yl)-6,7-dihydropyrazolo[1,5-a]pyrimidin-5(4H)-one]
- IC50 [1]: < 100 nM
- half-life at 1 μM [2]: < 25 min
- half-life at 1 μM [3]: < 25 min
- solubility at 24 h [4, 6]: < 10 µM
- solubility at 24 h [4, 7]: < 10 µM
- IC50 [5]: 100 to 500 nM

SMILES: CCn1cc(C(F)(F)F)nc1-c1ccc(OC2CCCn3nc(-c4c(Cl)cnn4C(C)C)cc32)cc1F (stereo not drawn) [Example 262]
- IC50 [1]: < 100 nM
- half-life at 1 μM [2]: > 25 min
- half-life at 1 μM [3]: > 25 min
- solubility at 24 h [4, 6]: < 10 µM
- solubility at 24 h [4, 7]: < 10 µM
- IC50 [5]: 100 to 500 nM

SMILES: CCn1cc(C(F)(F)F)nc1-c1ccc([C@H](C)N2CCCn3nc(-c4c(Cl)cnn4C(C)C)cc32)cc1 (single isomer, unassigned) [Example 67]
- IC50 [1]: < 100 nM
- half-life at 1 μM [2]: < 25 min
- half-life at 1 μM [3]: < 25 min
- solubility at 24 h [4, 6]: ≥ 10 µM
- solubility at 24 h [4, 7]: < 10 µM
- IC50 [5]: < 100 nM

SMILES: COc1ncnc(C2CC2)c1-c1nc2n(n1)CCC(=O)N2[C@@H](C)c1ccc(-n2nc(C(F)(F)F)cc2C)c(F)c1 [Example 203]
- IC50 [1]: 100 to 500 nM
- half-life at 1 μM [2]: > 25 min
- half-life at 1 μM [3]: > 25 min
- solubility at 24 h [4, 6]: ≥ 10 µM
- solubility at 24 h [4, 7]: ≥ 10 µM
- IC50 [5]: 100 to 500 nM

SMILES: COc1ncnc(C2CC2)c1-c1nc2n(n1)CCC(=O)N2Cc1ccc(-c2nc(C(F)(F)F)cn2C(C)C)c(Cl)c1 [Example 172]
- IC50 [1]: < 100 nM
- half-life at 1 μM [2]: > 25 min
- half-life at 1 μM [3]: > 25 min
- solubility at 24 h [4, 6]: ≥ 10 µM
- solubility at 24 h [4, 7]: ≥ 10 µM
- IC50 [5]: 100 to 500 nM

SMILES: COc1ncnc(C2CC2)c1-c1cc2n(n1)CCC(=O)N2Cc1ccc(-n2nc(C(F)(F)F)cc2OC)c(F)c1 [Example 7, 2-(4-cyclopropyl-6-methoxypyrimidin-5-yl)-4-(3-fluoro-4-(5-methoxy-3-(trifluoromethyl)-1H-pyrazol-1-yl)benzyl)-6,7-dihydropyrazolo[1,5-a]pyrimidin-5(4H)-one]
- IC50 [1]: < 100 nM
- half-life at 1 μM [2]: > 25 min
- half-life at 1 μM [3]: > 25 min
- solubility at 24 h [4, 6]: < 10 µM
- solubility at 24 h [4, 7]: < 10 µM
- IC50 [5]: 100 to 500 nM

SMILES: CCn1cc(C(F)(F)F)nc1-c1ccc(CN2C(=O)CCn3nc(-c4c(Cl)cnn4[C@@H](C)COC)cc32)cc1F [Example 132]
- IC50 [1]: < 100 nM
- half-life at 1 μM [2]: < 25 min
- half-life at 1 μM [3]: < 25 min
- solubility at 24 h [4, 6]: < 10 µM
- solubility at 24 h [4, 7]: < 10 µM
- IC50 [5]: < 100 nM

SMILES: CCn1cc(C(F)(F)F)nc1-c1ccc([C@H](C)N2C(=O)CCn3nc(-c4c(Cl)cnn4C(C)C)nc32)cc1F [Example 181]
- IC50 [1]: < 100 nM
- half-life at 1 μM [2]: < 25 min
- half-life at 1 μM [3]: > 25 min
- solubility at 24 h [4, 6]: < 10 µM
- solubility at 24 h [4, 7]: < 10 µM
- IC50 [5]: < 100 nM

SMILES: CC(C)n1ncc(Cl)c1-c1cc2n(n1)CCCN2Cc1ccc(-c2nc(C(F)(F)F)cn2C)c(F)c1 [Example 61]
- IC50 [1]: < 100 nM
- half-life at 1 μM [2]: < 25 min
- half-life at 1 μM [3]: < 25 min
- solubility at 24 h [4, 6]: < 10 µM
- solubility at 24 h [4, 7]: < 10 µM
- IC50 [5]: < 100 nM

SMILES: CCn1cc(C(F)(F)F)nc1-c1ccc(CN2C(=O)CCn3nc(-c4c(Cl)cnn4C(C)COC)cc32)cc1F (stereo not drawn) [Example 160]
- IC50 [1]: < 100 nM
- half-life at 1 μM [2]: < 25 min
- half-life at 1 μM [3]: < 25 min
- solubility at 24 h [4, 6]: < 10 µM
- solubility at 24 h [4, 7]: < 10 µM
- IC50 [5]: 100 to 500 nM
